{"source": "paper PMC10791743", "about": "“Selective CK1α degraders exert antiproliferative activity against a broad range of human cancer cell lines” (Nature Communications, 2024)", "key": {"[1]": {"molecular_target": "T1, CK1α-CRBN ternary complex (Homo sapiens, UniProt P48729+Q96SW2)", "T1 construct": "engineered by CRISPR/Cas9 to express endogenous CK1α (HEK293 cells) or IKZF1 (Jurkat cells) with a HiBiT tag; CS3023104 (cells)", "assay": "Live cell CK1α-CRBN ternary complex NanoBRET assay", "assay_type": "cell-based", "protocol": "CSNK1A1CK1α-HiBiT HEK293 LgBiT stable cells weretransfected with a HaloTag-CRBN vector (Promega, Cat. #N269A) using Fugene HD (Promega, Cat. #E2311). […] Plates were incubated overnight at 37 °C with 5% CO2. On day 3, a dose–response curve was generated by performing 3-fold dilutions of each compound including a DMSO-only control in OptiMEM I Reduced Serum Medium, no phenol red supplemented with 4% FBS. Cells were treated with MG132 (Selleckchem, Cat. #S2619) for 30 min before being treated with the dilution series of compounds. Plates were incubated for 2 h at 37 °C with 5% CO2. After 2 h, plates were read using NanoBRET Nano-Glo substrate (Promega #N1573) on a GloMax Discover following the manufacturer’s instructions. No ligand controls were subtracted from each sample and normalized to the no compound DMSO control to obtain Fractional BRET values. EC50 values were calculated for each compound curve."}, "[2]": {"tested_on": "MOLM-13 cells overexpressing FLAG-tagged CK1α G40N mutant", "assay": "CK1α mutant rescue, CTG viability, FLAG-CK1α G40N MOLM-13", "assay_type": "cell-based, human", "protocol": "To evaluate the contribution of the CK1α degradation in SJ3149-mediated cytotoxicity, we utilized the degradation-resistant mutant CK1α G40N[41]. MOLM-13 cells were transduced with lentivirus to overexpress FLAG-tagged wild type CK1α or the G40N mutant, which removes the essential glycine in the CK1α degron G-loop.\nThe media was changed after cells rested in the 37 °C incubator overnight. […] As described above in the Molecular Glue Library Screening section, transduced MOLM-13 cells were seeded in 384-well plates at 1250 cells per well and allowed to rest overnight. 30 nl of CK1α degraders of interest were deposited on the cells using an Echo 650 acoustic liquid handler […]. […] This was done twice for a total of six technical replicates."}, "[3]": {"assay": "Liver microsomes stability assay, mouse", "assay_type": "in vitro ADME", "protocol": "page 31: using a REMS Autosampler (World Precision Instruments, Sarasota, […]1 cells were grown for 5 days to reach a consistent confluency level monitored by epithelial voltohmmeter to confirm the intactness of the confluent polarized monolayer. For transport experiments, each cultured monolayer on the 96-well plate was washed twice with a transport buffer (HBSS/25 mM […] The cell-based permeability assay was initiated by the addition of each compound solution (10 μmol/L) into inserts (apical side, A) or receivers (basolateral side, B). After incubated […] (if basal to apical permeability), and concentrations were assessed by UPLC/MS (Waters; Milford, MA). All compounds were tested in triplicates. The A→B (or B→A) apparent permeability coefficients (Papp) of each compound were calculated using the equation (3): […], where dQ/dt equals the flux of a drug across the monolayer, the parameters of A equals the surface area of total insert well, and C0 is the initial concentration of substrate in the donor compartment. The efflux ratio was determined by dividing the Papp in the B-A direction by the Papp in the A-B direction. […] NADPH regenerating agent solutions A and B (Corning GentestTM, Cat. No: 451220) were purchased from Discovery Labware (Woburn, MA). Mouse liver microsomes (CD-1, pooled, GibcoTM, Cat. No: MSMCPL) were obtained from Thermo Fisher Scientific (Fredrick, MD). Pooled human liver microsomes (mixed gender, Cat. No: E0630) were purchased from XenoTech (Lenexa, KS). Stock solutions of test compounds were prepared at 10 mM in DMSO. Sample preparation for microsomal stability was modified from Di's publications3,4. […] and 4 hours) by Labcyte Echo 650 acoustic dispenser (Beckman Coulter Life Sciences, Indianapolis, IN). All compounds were tested in triplicate per time point. […] Plasma stability assay5: The degradation of human or mouse plasma was assessed by monitoring the gradual reduction of the parent compound over specified time intervals (0, 3, 24, and 48 hours). […]"}}, "note": "Where “and” joins values, the source holds several entries; their conditions need not be identical. Equal values may be shown once. Entries after “also recorded” stand apart in the source; their conditions may differ."}
{"smiles": "O=C1CCC(N2Cc3cc(Nc4noc5ccccc45)ccc3C2=O)C(=O)N1", "note": "(stereo not shown) [SJ3149]", "values": [{"measurement": "CK1a: CRBN Ternary Complex NanoBRET Ratio", "setting": "[1]; 0.111 uM", "result": "3.47 mBU and 2.55 mBU and 2.79 mBU"}, {"measurement": "CK1a: CRBN Ternary Complex NanoBRET Ratio, Normalized", "setting": "[1]; 0.111 uM", "result": "23.75 and 17.45 and 19.07"}, {"measurement": "CK1a: CRBN Ternary Complex NanoBRET Ratio", "setting": "[1]; 0.333 uM", "result": "4.12 mBU and 3.68 mBU and 3.78 mBU"}, {"measurement": "CK1a: CRBN Ternary Complex NanoBRET Ratio, Normalized", "setting": "[1]; 0.333 uM", "result": "28.17 and 25.18 and 25.82"}, {"measurement": "CK1a: CRBN Ternary Complex NanoBRET Ratio", "setting": "[1]; 1 uM", "result": "4.59 mBU and 4.78 mBU and 4.4 mBU"}, {"measurement": "CK1a: CRBN Ternary Complex NanoBRET Ratio, Normalized", "setting": "[1]; 1 uM", "result": "31.39 and 32.66 and 30.10"}, {"measurement": "CK1a: CRBN Ternary Complex NanoBRET Ratio", "setting": "[1]; 3 uM", "result": "4.96 mBU and 4.79 mBU and 5.46 mBU"}, {"measurement": "CK1a: CRBN Ternary Complex NanoBRET Ratio, Normalized", "setting": "[1]; 3 uM", "result": "33.90 and 32.75 and 37.33"}, {"measurement": "CK1a: CRBN Ternary Complex NanoBRET Ratio", "setting": "[1]; 10 uM, replicates", "result": "5.57 mBU and 5.32 mBU and 5.78 mBU"}, {"measurement": "CK1a: CRBN Ternary Complex NanoBRET Ratio, Normalized", "setting": "[1]; 10 uM, replicates", "result": "38.09 and 36.40 and 39.49"}, {"measurement": "Ternary complex formation (NanoBRET signal)", "setting": "[1]; 2 h treatment", "result": "most robust complex formation"}, {"measurement": "Viability response of cells expressing CK1α G40N vs wild type CK1α", "setting": "[2]; CTG 72 h", "result": "no longer sensitive to SJ3149; also recorded: reduced response"}, {"measurement": "cell viability percentages, CK1a G40N", "setting": "[2]; Concentration 0.000542", "result": "79.1206% and 68.9136% and 86.2719% and 90.6755% and 74.2686% and 67.4931%"}, {"measurement": "cell viability percentages, CK1a G40N", "setting": "[2]; Concentration 0.001625", "result": "77.8434% and 63.4222% and 59.9052% and 65.772% and 68.5727% and 55.5817%"}, {"measurement": "cell viability percentages, CK1a G40N", "setting": "[2]; Concentration 0.004875", "result": "72.8442% and 62.075% and 50.1243% and 53.1953% and 62.3344% and 69.4392%"}, {"measurement": "cell viability percentages, CK1a G40N", "setting": "[2]; Concentration 0.014624", "result": "59.4413% and 49.1388% and 62.3084% and 70.556% and 54.4032% and 55.8792%"}, {"measurement": "cell viability percentages, CK1a G40N", "setting": "[2]; Concentration 0.043872", "result": "47.6849% and 48.0051% and 58.611% and 66.0269% and 52.3495% and 54.2867%"}, {"measurement": "cell viability percentages, CK1a G40N", "setting": "[2]; Concentration 0.131617", "result": "56.3532% and 47.9219% and 49.9326% and 67.2267% and 57.1406% and 57.2358%"}, {"measurement": "cell viability percentages, CK1a G40N", "setting": "[2]; Concentration 0.394851", "result": "51.3415% and 43.4521% and 48.9175% and 55.4224% and 56.3876% and 59.8672%"}, {"measurement": "cell viability percentages, CK1a G40N", "setting": "[2]; Concentration 1.18455", "result": "47.8506% and 47.8436% and 44.0498% and 54.2517% and 50.6636% and 54.2115%"}, {"measurement": "cell viability percentages, CK1a G40N", "setting": "[2]; Concentration 3.55366", "result": "37.4202% and 38.8791% and 44.5898% and 50.284% and 52.251% and 51.3543%"}, {"measurement": "half-life at 10 µM", "setting": "[3]; CD-1, mouse, liver microsomes, pH 7.4, read-out: Microsome stability t1/2", "result": "> 10", "unit": "h"}]}
{"smiles": "O=C1CCC(N2Cc3c(CNC(=O)c4ccc(F)cc4)cccc3C2=O)C(=O)N1", "note": "(stereo not shown) [SJ7095]", "values": [{"measurement": "CK1a: CRBN Ternary Complex NanoBRET Ratio", "setting": "[1]; 0.111 uM", "result": "3.3 mBU and 3.11 mBU and 3.22 mBU and 2.76 mBU"}, {"measurement": "CK1a: CRBN Ternary Complex NanoBRET Ratio, Normalized", "setting": "[1]; 0.111 uM", "result": "3.03 and 2.85 and 2.95 and 2.53"}, {"measurement": "CK1a: CRBN Ternary Complex NanoBRET Ratio", "setting": "[1]; 0.333 uM", "result": "4.47 mBU and 5.14 mBU and 4.06 mBU and 4.1 mBU"}, {"measurement": "CK1a: CRBN Ternary Complex NanoBRET Ratio, Normalized", "setting": "[1]; 0.333 uM", "result": "4.10 and 4.71 and 3.72 and 3.76"}, {"measurement": "CK1a: CRBN Ternary Complex NanoBRET Ratio", "setting": "[1]; 1 uM", "result": "5.33 mBU and 5.06 mBU and 5.38 mBU and 4.31 mBU"}, {"measurement": "CK1a: CRBN Ternary Complex NanoBRET Ratio, Normalized", "setting": "[1]; 1 uM", "result": "4.89 and 4.64 and 4.93 and 3.95"}, {"measurement": "CK1a: CRBN Ternary Complex NanoBRET Ratio", "setting": "[1]; 3 uM", "result": "5.47 mBU and 7.05 mBU and 5.71 mBU and 6.74 mBU"}, {"measurement": "CK1a: CRBN Ternary Complex NanoBRET Ratio, Normalized", "setting": "[1]; 3 uM", "result": "5.01 and 6.46 and 5.23 and 6.18"}, {"measurement": "CK1a: CRBN Ternary Complex NanoBRET Ratio", "setting": "[1]; 10 uM, replicates", "result": "7.23 mBU and 6.62 mBU and 6.74 mBU and 6.49 mBU"}, {"measurement": "CK1a: CRBN Ternary Complex NanoBRET Ratio, Normalized", "setting": "[1]; 10 uM, replicates", "result": "6.63 and 6.07 and 6.18 and 5.95"}]}
{"smiles": "O=C1CCC(N2Cc3cc(Nc4noc5ccccc45)ccc3C2=O)C(=O)N1", "note": "(stereo not shown) [SJ001043149-1]", "values": [{"measurement": "Ke", "setting": "[3]", "result": -0.01}, {"measurement": "t(1/2)", "setting": "[3]", "result": -69.12}]}
